These results are taken from ChEMBL document CHEMBL3352652, “Oleanolic acid analogs as NO, TNF-α and IL-1β inhibitors: synthesis, biological evaluation and docking studies” (Bioorg Med Chem Lett, 2014).

In general, IC50 refers to the midpoint of a concentration-inhibition curve. The term inhibition denotes the relative decrease from the control value, in per cent.

The test system of assay [1] is J774.A1. Nature of the assay: Inhibition of LPS-induced IL1-beta release in mouse J774A1 cells compound preincubated for 1 hr before LPS treatment measured after 6 to 12 hrs by sandwich immunoassay. The assay is classed as functional, cell-based.
Assay [2] concerns RAW264.7. The assay is described as follows: Inhibition of LPS-induced TNF-alpha release in mouse RAW264.7 cells compound preincubated for 1 hr before LPS treatment measured after 6 to 12 hrs by sandwich immunoassay. The assay is classed as functional, cell-based.
For assay [3], the system named is J774.A1. The assay is described as follows: Inhibition of LPS-induced TNF-alpha release in mouse J774A1 cells compound preincubated for 1 hr before LPS treatment measured after 6 to 12 hrs by sandwich immunoassay. The assay is classed as functional, cell-based.
Assay [4] has as its system RAW264.7. Nature of the assay: Inhibition of LPS-induced IL1-beta release in mouse RAW264.7 cells compound preincubated for 1 hr before LPS treatment measured after 6 to 12 hrs by sandwich immunoassay. The assay is classed as functional, cell-based.
Assay [5] can be described thus: Cytotoxicity against mouse J774A1 cells assessed as cell viability by MTT assay relative to control. The assay is classed as cell-based. As to conditions: J774.A1. Background: Tetrazolium dyes change colour on reduction, which living cells bring about.
Assay [6] deals with J774.A1. The assay is described as follows: Inhibition of LPS-induced NO production in mouse J774A1 cells compound preincubated for 1 hr before LPS treatment by Griess reaction. The assay is classed as functional, cell-based. In general terms: Nitrite, measured by Griess reagent, commonly stands in for NO production.
Assay [7] deals with RAW264.7. The assay is described as follows: Inhibition of LPS-induced NO production in mouse RAW264.7 cells compound preincubated for 1 hr before LPS treatment by Griess reaction. The assay is classed as functional, cell-based.
The test system of assay [8] is RAW264.7. The assay is described as follows: Cytotoxicity mouse RAW264.7 cells assessed as cell viability by MTT assay relative to control. The assay is classed as cell-based.
The subject of assay [9] is RAW264.7. The assay is described as follows: Inhibition of LPS-induced TNF-alpha release in mouse RAW264.7 cells compound preincubated at 20 ug/ml for 1 hr before LPS treatment measured after 6 to 12 hrs by sandwich immunoassay. The assay is classed as functional.
Assay [10] concerns RAW264.7. The assay is described as follows: Inhibition of LPS-induced IL1-beta release in mouse RAW264.7 cells compound preincubated at 20 ug/ml for 1 hr before LPS treatment measured after 6 to 12 hrs by sandwich immunoassay. The assay is classed as functional.
Assay [11] deals with J774.A1. Nature of the assay: Inhibition of LPS-induced IL1-beta release in mouse J774A1 cells compound preincubated at 20 ug/ml for 1 hr before LPS treatment measured after 6 to 12 hrs by sandwich immunoassay. The assay is classed as functional.
For assay [12], the system named is J774.A1. Nature of the assay: Inhibition of LPS-induced TNF-alpha release in mouse J774A1 cells compound preincubated at 20 ug/ml for 1 hr before LPS treatment measured after 6 to 12 hrs by sandwich immunoassay. The assay is classed as functional.

In brackets after ≈: the same amount, converted by molar mass.

In the case of `C[C@@H]1C[C@H]2[C@@H]3CCC4=CC(=O)C=C[C@]4(C)[C@@]3(F)[C@@H](O)C[C@]2(C)[C@@]1(O)C(=O)CO` [DEXAMETHASONE], the IC50 in the assay with J774.A1 [1] came to 9.09 µg/mL (≈ 23.2 µM); in the assay with RAW264.7 [2] it was 0.016 µg/mL (≈ 0.0408 µM); in the assay with J774.A1 [3] it was 0.165 µg/mL (≈ 0.42 µM); with RAW264.7 [4], 1.84 µg/mL (≈ 4.69 µM).

On to `COC(=O)[C@]12CCC(C)(C)C[C@H]1C1=CC[C@@H]3[C@@]4(C)CCC(=O)C(C)(C)[C@@H]4CC[C@@]3(C)[C@]1(C)CC2`, for which the concentration for half-maximal inhibition (IC50) in assay [5] stood at 82.5 µM; in the assay on J774.A1 [6], 33.5 µM; in the assay with RAW264.7 [7], 31.7 µM; in the assay with RAW264.7 [8], 79.3 µM.

Turning to `CC1(C)CC[C@]2(C(=O)O)CC[C@]3(C)C(=CC[C@@H]4[C@@]5(C)CC[C@H](O)C(C)(C)[C@@H]5CC[C@]43C)[C@@H]2C1` [OLEANOLIC_ACID], the IC50 in [5] is 87.2 µM; in the assay on J774.A1 [6], 35.2 µM; in the assay with RAW264.7 [7], 41.7 µM; in the assay with RAW264.7 [8], 89.1 µM.

On to `CC1(C)CC[C@]2(C(=O)NN)CC[C@]3(C)C(=CC[C@@H]4[C@@]5(C)Cc6c([nH]c7ccccc67)C(C)(C)[C@@H]5CC[C@]43C)[C@@H]2C1`, for which the 50% inhibitory concentration (IC50) in assay [5] turned out to be 91 µM; in the assay with J774.A1 [6] it was 17.7 µM; with RAW264.7 [7], 16.5 µM; with RAW264.7 [8], 92.4 µM. The inhibition at 20 µg/mL in the assay on RAW264.7 [9] came to 31.2%; in the assay on RAW264.7 [10], 13.9%; in the assay with J774.A1 [11], 11.1%; in the assay on J774.A1 [12] it was 27.9%.

`CC1(C)CC[C@]2(C(=O)NCc3ccccc3)CC[C@]3(C)C(=CC[C@@H]4[C@@]5(C)Cc6c([nH]c7ccccc67)C(C)(C)[C@@H]5CC[C@]43C)[C@@H]2C1`: the concentration for half-maximal inhibition (IC50) in assay [5] was 93.5 µM; in the assay with J774.A1 [6], 18.4 µM; with RAW264.7 [7], 24.1 µM; in the assay on RAW264.7 [8], 93.5 µM.

On to `CC1(C)CC[C@]2(C(=O)O)CC[C@]3(C)C(=CC[C@@H]4[C@@]5(C)CCC(=O)C(C)(C)[C@@H]5CC[C@]43C)[C@@H]2C1` [OLEANONIC ACID], for which the IC50 is 87.7 µM in [5], 38.8 µM with J774.A1 [6], 38.5 µM in the assay with RAW264.7 [7] and 89.6 µM in the assay on RAW264.7 [8].

On to `CC1(C)CC[C@]2(C(=O)O)CC[C@]3(C)C(=CC[C@@H]4[C@@]5(C)Cc6c([nH]c7ccccc67)C(C)(C)[C@@H]5CC[C@]43C)[C@@H]2C1`, for which the IC50 is 83.7 µM in [5], 21 µM in the assay on J774.A1 [6], 18.8 µM in the assay on RAW264.7 [7] and 80.2 µM with RAW264.7 [8].

Turning to `COc1cc(/C=C/C(=O)CC(=O)/C=C/c2ccc(O)c(OC)c2)ccc1O` [CURCUMIN], the concentration for half-maximal inhibition (IC50) with J774.A1 [1] amounted to 24.8 µg/mL (≈ 67.4 µM); in the assay with J774.A1 [6], 18.5 µM; with RAW264.7 [2], 1.25 µg/mL (≈ 3.39 µM); in the assay on J774.A1 [3], 2.08 µg/mL (≈ 5.65 µM); in the assay with RAW264.7 [4], 6.44 µg/mL (≈ 17.5 µM).

On to `Cc1ccc(C)c(NC(=O)[C@]23CCC(C)(C)C[C@H]2C2=CC[C@@H]4[C@@]5(C)Cc6c([nH]c7ccccc67)C(C)(C)[C@@H]5CC[C@@]4(C)[C@]2(C)CC3)c1`, for which the IC50 in [5] was 84.7 µM; in the assay on J774.A1 [6], 29.4 µM; in the assay with RAW264.7 [7], 23.2 µM; with RAW264.7 [8] it was 83.2 µM.

As for `CC(=O)O[C@H]1CC[C@]2(C)[C@H]3CC=C4[C@@H]5CC(C)(C)CC[C@]5(C(=O)O)CC[C@@]4(C)[C@]3(C)CC[C@H]2C1(C)C` [ACETYL OLEANOLIC ACID], the IC50 in assay [5] stood at 80.3 µM; in the assay on J774.A1 [6] it was 16.8 µM; in the assay with RAW264.7 [7], 13.8 µM; in the assay on RAW264.7 [8], 79.2 µM. The inhibition at 20 µg/mL in the assay with RAW264.7 [9] stood at 38.7%; in the assay with RAW264.7 [10] it was 22.8%; in the assay on J774.A1 [11] it was 21.1%; with J774.A1 [12], 33.1%.

In the assay with J774.A1 [6], `COC(=O)[C@@H](N)CCCNC(=N)N[N+](=O)[O-]` [L-NAME] came in with an IC50 of 73.2 µM.

As to `CC1(C)CC[C@]2(C(=O)Cl)CC[C@]3(C)C(=CC[C@@H]4[C@@]5(C)Cc6c([nH]c7ccccc67)C(C)(C)[C@@H]5CC[C@]43C)[C@@H]2C1`, the half-inhibitory concentration (IC50) turned out to be 89.3 µM in [5], 24.9 µM with J774.A1 [6], 22.8 µM in the assay with RAW264.7 [7] and 86.2 µM in the assay with RAW264.7 [8].

On to `Cc1ccc(NC(=O)[C@]23CCC(C)(C)C[C@H]2C2=CC[C@@H]4[C@@]5(C)Cc6c([nH]c7ccccc67)C(C)(C)[C@@H]5CC[C@@]4(C)[C@]2(C)CC3)cc1`, for which the IC50 was determined as 83.5 µM in [5], 26.1 µM in the assay on J774.A1 [6], 22.6 µM in the assay on RAW264.7 [7] and 80.4 µM in the assay with RAW264.7 [8].

Consider `CC1(C)CC[C@]2(C(=O)Nc3ccc(Br)cc3)CC[C@]3(C)C(=CC[C@@H]4[C@@]5(C)Cc6c([nH]c7ccccc67)C(C)(C)[C@@H]5CC[C@]43C)[C@@H]2C1`, for which the IC50 in assay [5] was 87 µM; with J774.A1 [6], 27.4 µM; with RAW264.7 [7] it was 25.4 µM; with RAW264.7 [8] it was 85.3 µM.

Turning to `CNC(=O)[C@]12CCC(C)(C)C[C@H]1C1=CC[C@@H]3[C@@]4(C)Cc5c([nH]c6ccccc56)C(C)(C)[C@@H]4CC[C@@]3(C)[C@]1(C)CC2`, the concentration for half-maximal inhibition (IC50) in [5] was found to be 91.7 µM; in the assay with J774.A1 [6], 15.9 µM; in the assay on RAW264.7 [7] it was 4.75 µM; with RAW264.7 [8] it was 90.3 µM. In addition, the inhibition at 20 µg/mL with RAW264.7 [9] came out at 43.7%; in the assay on RAW264.7 [10] it was 13.3%; in the assay on J774.A1 [11], 11.8%; in the assay with J774.A1 [12], 40.3%.

Turning to `CC1(C)CC[C@]2(C(=O)O)CC[C@]3(C)C(=CC[C@@H]4[C@@]5(C)CC/C(=N\O)C(C)(C)[C@@H]5CC[C@]43C)[C@@H]2C1`, the half-maximal inhibitory concentration (IC50) worked out at 85.5 µM in [5], 41.3 µM in the assay with J774.A1 [6], 39.2 µM with RAW264.7 [7] and 82.4 µM with RAW264.7 [8].

`CC1(C)CC[C@]2(C(=O)NC3CCCCC3)CC[C@]3(C)C(=CC[C@@H]4[C@@]5(C)Cc6c([nH]c7ccccc67)C(C)(C)[C@@H]5CC[C@]43C)[C@@H]2C1`: the half-maximal inhibitory concentration (IC50) was 97.3 µM in [5], 10.8 µM in the assay on J774.A1 [6], 2.66 µM in the assay on RAW264.7 [7] and 96.4 µM with RAW264.7 [8]. In addition, the inhibition at 20 µg/mL with RAW264.7 [9] turned out to be 47.8%; in the assay with RAW264.7 [10], 37.5%; in the assay with J774.A1 [11] it was 31.7%; with J774.A1 [12], 51.9%.
